Source: publication PMC9945734 (BMC Medicine, 2023)
Counter-ions that a name gives are not always drawn. Like-named read-outs stand apart in the source and are kept apart here.

Test system: PC-3-KQ cells
Test: 3D spheroid invasion assay and screening of FDA-approved drugs
Type: cell-based, human
Settings: compared to vehicle control; for activity at 0.01 µM / activity at 0.1 µM / activity at 1 µM / activity at 10 µM: Homo sapiens, 72 h
Description: The invasion assay was performed as previously described. […] The plates were then centrifuged at 320 g for 4 min to cluster cells in the bottom of wells and incubated for 3 days. On the fourth day, 40 μL medium was removed from each well, 40 μL of the matrigel-medium mixture was added to each well, and cells were cultured for another 3 days. […] At the end of the incubation, images were taken using a phase contrast microscope (Eclipse Ti2, Nikon, Tokyo, Japan) with 10× object lenses, and the total area of cells and the core sphere area of cells (Fig. 1a) were measured using the Image J software. The invading area was calculated using the following formula: invasion area = total area of cells – core sphere area.
For drug screening, drugs were added to the matrigel-medium mixture when replacing the culture medium on day 4. For the initial round of screening, a final concentration of 10 μM was used for all drugs. Multiple drug concentrations were used for the second round of screening, including 0, 0.001, 0.01, 0.1, 1, and 10 μM. Duplicate wells were repeated for each concentration.

[1] = 0.01 μM (first column so headed), secondary screening of 87 hit compounds (Table S1), read-out: Invasion rates (%) of each drug’s multiple concentrations
[2] = 0.01 μM (first column so headed), third screening of 25 hit compounds (Table S2), read-out: Invasion rates (%) of each drug’s multiple concentrations
[3] = 0.01 μM (second column so headed), secondary screening of 87 hit compounds (Table S1), read-out: Invasion rates (%) of each drug’s multiple concentrations
[4] = 0.01 μM (second column so headed), third screening of 25 hit compounds (Table S2), read-out: Invasion rates (%) of each drug’s multiple concentrations
[5] = 0.1 μM, secondary screening of 87 hit compounds (Table S1), read-out: Invasion rates (%) of each drug’s multiple concentrations
[6] = 0.1 μM, third screening of 25 hit compounds (Table S2), read-out: Invasion rates (%) of each drug’s multiple concentrations
[7] = 1 μM, secondary screening of 87 hit compounds (Table S1), read-out: Invasion rates (%) of each drug’s multiple concentrations
[8] = 1 μM, third screening of 25 hit compounds (Table S2), read-out: Invasion rates (%) of each drug’s multiple concentrations
[9] = 10 μM, secondary screening of 87 hit compounds (Table S1), read-out: Invasion rates (%) of each drug’s multiple concentrations
[10] = 10 μM, third screening of 25 hit compounds (Table S2), read-out: Invasion rates (%) of each drug’s multiple concentrations
[11] = 0.01 μM (first column so headed), secondary screening of 87 hit compounds (Table S1)
[12] = 0.01 μM (first column so headed), third screening of 25 hit compounds (Table S2)
[13] = 0.01 μM (second column so headed), secondary screening of 87 hit compounds (Table S1)
[14] = 0.01 μM (second column so headed), third screening of 25 hit compounds (Table S2)
[15] = 0.1 μM, secondary screening of 87 hit compounds (Table S1)
[16] = 0.1 μM, third screening of 25 hit compounds (Table S2)
[17] = 1 μM, secondary screening of 87 hit compounds (Table S1)
[18] = 1 μM, third screening of 25 hit compounds (Table S2)
[19] = 10 μM, secondary screening of 87 hit compounds (Table S1)
[20] = 10 μM, third screening of 25 hit compounds (Table S2)

| SMILES | activity at 0.01 µM [1] | activity at 0.01 µM [3] | activity at 0.1 µM [5] | activity at 1 µM [7] | activity at 10 µM [9] | Invasion rates (%) of each drug’s multiple concentrations (μM) [11] | Invasion rates (%) of each drug’s multiple concentrations (μM) [13] | Invasion rates (%) of each drug’s multiple concentrations (μM) [15] | Invasion rates (%) of each drug’s multiple concentrations (μM) [17] | Invasion rates (%) of each drug’s multiple concentrations (μM) [19] | also measured |
| --- | --- | --- | --- | --- | --- | --- | --- | --- | --- | --- | --- |
| COc1cc2ncnc(Nc3ccc(F)c(Cl)c3)c2cc1NC(=O)/C=C/CN1CCCCC1 [Dacomitinib] | 78.1% | 77.8% | 73.1% | 44.7% | 5.75% | – | – | – | – | – | activity at 0.01 µM [2]: 98.9%; activity at 0.01 µM [4]: 102%; activity at 0.1 µM [6]: 98.6%; activity at 1 µM [8]: 90.7%; activity at 10 µM [10]: 53.9% |
| CNC[C@H](O)[C@@H](O)[C@H](O)[C@H](O)CO.Nc1nc(-n2cc(C(=O)O)c(=O)c3cc(F)c(N4CC(O)C4)c(Cl)c32)c(F)cc1F [Delafloxacin (meglumine)] | – | – | – | – | – | 85.63% | 84.75% | 73.78% | 2.08% | 1.54% | Invasion rates (%) of each drug’s multiple concentrations (μM) [12]: 93.02%; Invasion rates (%) of each drug’s multiple concentrations (μM) [14]: 86.37%; Invasion rates (%) of each drug’s multiple concentrations (μM) [16]: 82.73%; Invasion rates (%) of each drug’s multiple concentrations (μM) [18]: 1.96%; Invasion rates (%) of each drug’s multiple concentrations (μM) [20]: 0.81% |
| Cc1ccc(C(=O)Nc2ccc(CN3CCN(C)CC3)c(C(F)(F)F)c2)cc1C#Cc1cnc2cccnn12 [Ponatinib] | – | – | – | – | – | – | – | – | – | – | activity at 0.01 µM (read-out: Invasion rates (%) of each drug’s multiple concentrations (μM), 0.01 μM (first column so headed), secondary screening of 87 hit compounds (Table S1)): 94.4%; activity at 0.01 µM (read-out: Invasion rates (%) of each drug’s multiple concentrations (μM), 0.01 μM (second column so headed), secondary screening of 87 hit compounds (Table S1)): 94.5%; activity at 0.1 µM (read-out: Invasion rates (%) of each drug’s multiple concentrations (μM), 0.1 μM, secondary screening of 87 hit compounds (Table S1)): 94.8%; activity at 1 µM (read-out: Invasion rates (%) of each drug’s multiple concentrations (μM), 1 μM, secondary screening of 87 hit compounds (Table S1)): 91%; activity at 10 µM (read-out: Invasion rates (%) of each drug’s multiple concentrations (μM), 10 μM, secondary screening of 87 hit compounds (Table S1)): 17.7% |
| CC/C(=C(\c1ccccc1)c1ccc(OCCN(C)C)cc1)c1ccccc1.O=C(O)CC(O)(CC(=O)O)C(=O)O [Tamoxifen (Citrate)] | – | – | – | – | – | 94.34% | 97.97% | 91.22% | 85.65% | 1.00% | – |
| CC(=O)[C@]1(O)Cc2c(O)c3c(c(O)c2[C@@H](O[C@H]2C[C@H](N)[C@H](O)[C@H](C)O2)C1)C(=O)c1ccccc1C3=O.Cl [Idarubicin (hydrochloride)] | – | – | – | – | – | 80.06% | 88.67% | 83.45% | 7.74% | 3.85% | Invasion rates (%) of each drug’s multiple concentrations (μM) [12]: 95.32%; Invasion rates (%) of each drug’s multiple concentrations (μM) [14]: 98.46%; Invasion rates (%) of each drug’s multiple concentrations (μM) [16]: 100.06%; Invasion rates (%) of each drug’s multiple concentrations (μM) [18]: 1.25%; Invasion rates (%) of each drug’s multiple concentrations (μM) [20]: 1.34% |
| COc1cc2ncnc(Nc3ccc(F)c(Cl)c3)c2cc1OCCCN1CCOCC1 [Gefitinib] | 86.8% | 85.3% | 77.8% | 60.2% | 27.4% | – | – | – | – | – | – |
| CN(C)[C@@H]1C(=O)C(C(N)=O)=C(O)[C@@]2(O)C(=O)C3=C(O)c4c(O)ccc(Cl)c4[C@@H](O)[C@H]3C[C@@H]12.Cl [Demeclocycline (hydrochloride)] | – | – | – | – | – | 92.92% | 97.24% | 81.08% | 41.75% | 4.21% | Invasion rates (%) of each drug’s multiple concentrations (μM) [12]: 93.85%; Invasion rates (%) of each drug’s multiple concentrations (μM) [14]: 95.74%; Invasion rates (%) of each drug’s multiple concentrations (μM) [16]: 89.49%; Invasion rates (%) of each drug’s multiple concentrations (μM) [18]: 2.65%; Invasion rates (%) of each drug’s multiple concentrations (μM) [20]: 0.30% |
| N[C@@H](Cc1cc(I)c(Oc2ccc(O)c(I)c2)c(I)c1)C(=O)O [Liothyronine] | 93.5% | 97.4% | 93.3% | 92.5% | 50.6% | – | – | – | – | – | – |
| COc1ccc(CN(CCN(C)C)c2ccccn2)cc1 [Mepyramine maleate] | 101% | 98.3% | 99.1% | 97.9% | 48.9% | – | – | – | – | – | – |
| CNc1ncc(-c2ccc3c(=O)c(C(=O)O)cn(C4CC4)c3c2C)cc1C [Ozenoxacin] | – | – | – | – | – | 96.05% | 100.15% | 94.32% | 88.16% | 4.14% | – |
| CC(=O)O[C@H]1C[C@@]2(C)[C@@H](C[C@@H](O)[C@H]3[C@@]4(C)CC[C@@H](O)[C@@H](C)[C@@H]4CC[C@@]32C)/C1=C(\CCC=C(C)C)C(=O)[O-].[Na+] [Fusidic acid (sodium salt)] | – | – | – | – | – | 92.69% | 89.70% | 87.85% | 68.14% | 0.70% | – |
| C=C1c2cccc(O)c2C(O)=C2C(=O)[C@]3(O)C(O)=C(C(N)=O)C(=O)[C@@H](N(C)C)[C@@H]3[C@@H](O)[C@H]12.Cl [Methacycline (hydrochloride)] | – | – | – | – | – | 68.21% | 75.44% | 57.31% | 4.98% | 3.07% | Invasion rates (%) of each drug’s multiple concentrations (μM) [12]: 93.06%; Invasion rates (%) of each drug’s multiple concentrations (μM) [14]: 92.10%; Invasion rates (%) of each drug’s multiple concentrations (μM) [16]: 89.39%; Invasion rates (%) of each drug’s multiple concentrations (μM) [18]: 5.12%; Invasion rates (%) of each drug’s multiple concentrations (μM) [20]: 2.20% |
| CC/C(=C(\c1ccccc1)c1ccc(OCCN(C)C)cc1)c1ccccc1 [Tamoxifen] | 96.2% | 95.4% | 97% | 91.1% | 24.3% | – | – | – | – | – | – |
| COC(=O)c1ccc2c(c1)NC(=O)/C2=C(\Nc1ccc(N(C)C(=O)CN2CCN(C)CC2)cc1)c1ccccc1 [Nintedanib] | 98.1% | 98.3% | 97.5% | 95.2% | 36.2% | – | – | – | – | – | – |
| CC1CCc2c(N3CCC(O)CC3)c(F)cc3c(=O)c(C(=O)O)cn1c23 (stereo not shown) [Nadifloxacin] | 102% | 104% | 101% | 100% | 1.03% | – | – | – | – | – | – |
| Cn1nnc(-c2ccc(-c3ccc(N4C[C@H](COP(=O)(O)O)OC4=O)cc3F)cn2)n1 [Tedizolid (phosphate)] | 89% | 91.7% | 70.7% | 3.59% | 3.35% | – | – | – | – | – | activity at 0.01 µM [2]: 99.8%; activity at 0.01 µM [4]: 96.1%; activity at 0.1 µM [6]: 90.7%; activity at 1 µM [8]: 3.28%; activity at 10 µM [10]: 2.87% |
| CC(=O)NC[C@H]1CN(c2ccc(N3CCOCC3)c(F)c2)C(=O)O1 [Linezolid] | 94.4% | 96.6% | 80% | 64.5% | 3.51% | – | – | – | – | – | – |
